Source: patent US20240092799A1, “MNK INHIBITORS” (Hepagene Therapeutics (HK) Limited, priority 2020, published 2024)

Biological target: MNK2 (Homo sapiens (Human), UniProt Q9HBH9)
Assay: MNK Biochemical Enzymatic Assay (ADP-Glo), MNK2 binding assay
Protocol: MNK Biochemical Enzymatic Assay. This protocol establishes the binding assays for MNK1 and MNK2 using ADP-Glo assay. MNK phosphorylates the substrate and converts ATP to ADP, which was detected by Envision and used to reflect the reminding activity of MNK. Reagents and equipment used in the assay are listed below, followed by the protocol.
• a) Add 50 μL compound to 384-well dilution plate • b) Dilute compound 1:3 in succession in DMSO for each column for 10+0 pts (refer to dilution plate map) • c) Transfer 0.1 μL diluted compound solution in each row to 384 assay plate using Echo, each column containing 2 replicates (refer to assay plate map) • d) Add 5 μL enzyme working solution to 384-well assay plate, centrifuge 1000 RPM for 1 min • e) Incubate at 25° C. for 15 min • f) Add 5 μL substrate working solution to initiate reaction • g) Incubate at 25° C. for 60 min • h) Add 10 μL ADP Glo reagent, centrifuge 1000 RPM for 1 min • i) Incubate at 25° C. for 60 min • j) Add 20 μL kinase detection reagent, centrifuge 1000 RPM for 1 min • k) Incubate at 25° C. for 60 min • l) Read on Envision for US LUM as RLU • m) Data analysis: IC50s were determined based on a non-linear regression analysis of data collected.

MNK2, sequence (Q9HBH9 whole entry): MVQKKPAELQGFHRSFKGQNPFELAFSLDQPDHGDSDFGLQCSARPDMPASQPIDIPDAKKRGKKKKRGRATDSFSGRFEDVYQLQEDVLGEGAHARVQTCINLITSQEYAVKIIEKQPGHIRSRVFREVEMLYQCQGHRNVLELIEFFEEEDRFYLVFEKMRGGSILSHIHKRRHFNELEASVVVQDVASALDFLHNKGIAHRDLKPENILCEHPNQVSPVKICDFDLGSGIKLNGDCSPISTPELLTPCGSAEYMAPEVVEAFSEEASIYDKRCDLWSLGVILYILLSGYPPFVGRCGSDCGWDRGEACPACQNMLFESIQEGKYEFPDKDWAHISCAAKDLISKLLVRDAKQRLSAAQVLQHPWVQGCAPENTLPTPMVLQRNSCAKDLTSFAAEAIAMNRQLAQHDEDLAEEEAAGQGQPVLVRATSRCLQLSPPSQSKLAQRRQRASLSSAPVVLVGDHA

IC50 [µM]	SMILES
0.01 to 0.1	Cc1nc(Nc2cc(C)c3c([n+]2[O-])C2(CCCCC2)NC3=O)cc(N[C@H]2CCOC2)n1 [Compound XXIX-AY, (S)-4′-methyl-2′-((2-methyl-6-((tetrahydrofuran-3-yl)amino)pyrimidin-4-yl)amino)-5′-oxo-5′,6′-dihydrospiro[cyclohexane-1,7′-pyrrolo[3,4-b]pyridine] 1′-oxide]
0.01 to 0.1	CC(=O)N1CC(Nc2cc(Nc3cc(C)c4c([n+]3[O-])C3(CCCCC3)NC4=O)ncn2)C1 [Compound XXIX-AC, 2′-((6-((1-acetylazetidin-3-yl)amino)pyrimidin-4-yl)amino)-4′-methyl-5′-oxo-5′,6′-dihydrospiro[cyclohexane-1,7′-pyrrolo[3,4-b]pyridine] 1′-oxide]
> 1	Cc1cc(-c2cc(-c3cc(N)ncn3)no2)cc2c1C(=O)NC21CCCCC1 [Compound VII, 6′-(3-(6-Aminopyrimidin-4-yl)isoxazol-5-yl)-4′-methylspiro[cyclohexane-1,1′-isoindolin]-3′-one]
0.01 to 0.1	Cc1cc(Nc2cc(N[C@H]3CCCOC3)ncn2)[n+]([O-])c2c1C(=O)NC21CCCCC1 [Compound XXIX-E, (S)-4′-methyl-5′-oxo-2′-((6-((tetrahydro-2H-pyran-3-yl)amino)pyrimidin-4-yl)amino)-5′,6′-dihydrospiro[cyclohexane-1,7′-pyrrolo[3,4-b]pyridine] 1′-oxide]
0.01 to 0.1	Cc1cc(Nc2cc(N[C@H]3CC[C@@H](O)C3)ncn2)[n+]([O-])c2c1C(=O)NC21CCCCC1 (relative stereo) [Compound XXIX-Y, 2′-((6-((cis-3-hydroxycyclopentyl)amino)pyrimidin-4-yl)amino)-4′-methyl-5′-oxo-5′,6′-dihydrospiro[cyclohexane-1,7′-pyrrolo[3,4-b]pyridine] 1′-oxide]
0.01 to 0.1	Cc1cc(Nc2cc(N[C@H]3C[C@H](O)C3)ncn2)[n+]([O-])c2c1C(=O)NC21CCCCC1 [Compound XXIX-T, trans-2′-((6-(((1r,3r)-3-hydroxycyclobutyl)amino)pyrimidin-4-yl)amino)-4′-methyl-5′-oxo-5′,6′-dihydrospiro[cyclohexane-1,7′-pyrrolo[3,4-b]pyridine] 1′-oxide]
0.01 to 0.1	Cc1cc(Nc2ncnc3[nH]ncc23)[n+]([O-])c2c1C(=O)NC21CCCCC1 [Compound XXIX-AAH, 2′-((1H-pyrazolo[3,4-d]pyrimidin-4-yl)amino)-4′-methyl-5′-oxo-5′,6′-dihydrospiro[cyclohexane-1,7′-pyrrolo[3,4-b]pyridine] 1′-oxide]
0.01 to 0.1	Cc1cc(Nc2cc(N[C@H]3CCNC3)ncn2)[n+]([O-])c2c1C(=O)NC21CCCCC1 [Compound XXIX-S, (S)-4′-methyl-5′-oxo-2′-((6-(pyrrolidin-3-ylamino)pyrimidin-4-yl)amino)-5′,6′-dihydrospiro[cyclohexane-1,7′-pyrrolo[3,4-b]pyridine] 1′-oxide]
0.01 to 0.1	Nc1ncnc(Nc2cc3c(s2)C(=O)NC32CCCCC2)c1Cl [Compound XX, 2′-((6-Amino-5-chloropyrimidin-4-yl)amino)spiro[cyclohexane-1,4′-thieno[2,3-c]pyrrol]-6′(5′H)-one]
0.01 to 0.1	O=C1NC2(CCCCC2)c2nc(Nc3cc(N[C@H]4C[C@H](O)C4)ncn3)sc21 [Compound XXVIII-N, Trans-2′-((6-(((1r,3r)-3-hydroxycyclobutyl)amino)pyrimidin-4-yl)amino)spiro[cyclohexane-1,4′-pyrrolo[3,4-d]thiazol]-6′(5′H)-one]
0.1 to 1	Cc1cc(Nc2ccnc(N[C@H]3CCOC3)c2)[n+]([O-])c2c1C(=O)NC21CCCCC1 [Compound XXIX-H, (S)-4′-methyl-5′-oxo-2′-((2-((tetrahydrofuran-3-yl)amino)pyridin-4-yl)amino)-5′,6′-dihydrospiro[cyclohexane-1,7′-pyrrolo[3,4-b]pyridine] 1′-oxide]
0.1 to 1	Cc1cccnc1Nc1cc(Nc2cc3c(s2)C(=O)NC32CCCCC2)ncn1 [Compound XXIII-S, 2′-((6-((3-methylpyridin-2-yl)amino)pyrimidin-4-yl)amino)spiro [cyclohexane-1,4′-thieno[2,3-c]pyrrol]-6′(5′H)-one]
0.01 to 0.1	O=C1NC2(CCCCC2)c2cc(Nc3cc(NC4CCCCC4)ncn3)sc21 [Compound XXIV-J, 2′-((6-(cyclohexylamino)pyrimidin-4-yl)amino)spiro[cyclohexane-1,4′-thieno[2,3-c]pyrrol]-6′(5′H)-one]
0.01 to 0.1	O=C1NC2(CCCCC2)c2cc(Nc3cc(Nc4cccnc4)ncn3)sc21 [Compound XXIII-Z]
0.0001 to 0.01	Cc1cc(Nc2cc(NC(=O)C3CCCC3)ncn2)[n+]([O-])c2c1C(=O)NC21CCCCC1 [Compound XXIX-G, 2′-((6-(cyclopentanecarboxamido)pyrimidin-4-yl)amino)-4′-methyl-5′-oxo-5′,6′-dihydrospiro[cyclohexane-1,7′-pyrrolo[3,4-b]pyridine] 1′-oxide]
0.01 to 0.1	Cc1cc(Nc2cc(NCC3CCCO3)ncn2)[n+]([O-])c2c1C(=O)NC21CCCCC1 (stereo not shown) [Compound XXIX-P, 4′-methyl-5′-oxo-2′-((6-(((tetrahydrofuran-2-yl)methyl)amino)pyrimidin-4-yl)amino)-5′,6′-dihydrospiro[cyclohexane-1,7′-pyrrolo[3,4-b]pyridine] 1′-oxide]
0.01 to 0.1	COCCCNc1cc(Nc2cc(C)c3c([n+]2[O-])C2(CCCCC2)NC3=O)ncn1 [Compound XXIX-C, 2′-((6-((3-methoxypropyl)amino)pyrimidin-4-yl)amino)-4′-methyl-5′-oxo-5′,6′-dihydrospiro[cyclohexane-1,7′-pyrrolo[3,4-b]pyridine] 1′-oxide]
0.01 to 0.1	CC(=O)N(C)c1cccc(Nc2cc(Nc3nc4c(s3)C(=O)NC43CCCCC3)ncn2)c1 [Compound XXVIII-I, N-methyl-N-(3-((6-((6′-oxo-5′,6′-dihydrospiro[cyclohexane-1,4′-pyrrolo[3,4-d]thiazol]-2′-yl)amino)pyrimidin-4-yl)amino)phenyl)acetamide]
0.01 to 0.1	Cc1cc(Nc2cc(NCCO)ncn2)[n+]([O-])c2c1C(=O)NC21CCCCC1 [Compound XXIX-I, 2′-((6-((2-hydroxyethyl)amino)pyrimidin-4-yl)amino)-4′-methyl-5′-oxo-5′,6′-dihydrospiro[cyclohexane-1,7′-pyrrolo[3,4-b]pyridine] 1′-oxide]
0.01 to 0.1	Cc1cc(Nc2cc(NC(=O)N(C)C)ncn2)[n+]([O-])c2c1C(=O)NC21CCCCC1 [Compound XXIX-U, 2′-((6-(3,3-dimethylureido)pyrimidin-4-yl)amino)-4′-methyl-5′-oxo-5′,6′-dihydrospiro[cyclohexane-1,7′-pyrrolo[3,4-b]pyridine] 1′-oxide]
0.01 to 0.1	CN(C)C(=O)C1CCc2c(sc3ncnc(Nc4cc5c(s4)C(=O)NC54CCCCC4)c23)C1 (stereo not shown) [Compound XXV-B, N,N-Dimethyl-4-((6′-oxo-5′,6′-dihydrospiro[cyclohexane-1,4′-thieno[2,3-c]pyrrol]-2′-yl)amino)-5,6,7,8-tetrahydrobenzo[4,5]thieno[2,3-d]pyrimidine-7-carboxamide]
0.1 to 1	O=C1NC2(CCCCC2)c2cc(Nc3ncnc4sccc34)sc21 [Compound X-B, 2′-(thieno[2,3-d]pyrimidin-4-ylamino)spiro[cyclohexane-1,4′-thieno[2,3-c]pyrrol]-6′(5′H)-one]
0.01 to 0.1	CC(=O)N(C)c1cccc(Nc2cc(Nc3cc(C)c4c([n+]3[O-])C3(CCCCC3)NC4=O)ncn2)c1 [Compound XXIX-N, 4′-methyl-2′-((6-((3-(N-methylacetamido)phenyl)amino)pyrimidin-4-yl)amino)-5′-oxo-5′,6′-dihydrospiro[cyclohexane-1,7′-pyrrolo[3,4-b]pyridine] 1′-oxide]
0.1 to 1	Cc1c(NC(=O)C2CC2)ncnc1Nc1cc2c(s1)C(=O)NC21CCCCC1 [Compound XX-C, N-(5-Methyl-6-((6′-oxo-5′,6′-dihydrospiro[cyclohexane-1,4′-thieno[2,3-c]pyrrol]-2′-yl)amino)pyrimidin-4-yl)cyclopropanecarboxamide]
0.1 to 1	Cc1cc(Nc2cc(NC3CCOCC3)ncn2)[n+]([O-])c2c1C(=O)NC21CCCCC1 [Compound XXIX-R, 4′-methyl-5′-oxo-2′-((6-((tetrahydro-2H-pyran-4-yl)amino)pyrimidin-4-yl)amino)-5′,6′-dihydrospiro[cyclohexane-1,7′-pyrrolo[3,4-b]pyridine] 1′-oxide]
> 1	Cc1cc(-c2cc(-c3cc(N)ncn3)no2)c(=O)n2c1C(=O)NC21CCCCC1 [Compound XVIII, 6′-(3-(6-Aminopyrimidin-4-yl)isoxazol-5-yl)-8′-methyl-2′H-spiro[cyclohexane-1,3′-imidazo[1,5-a]pyridine]-1′,5′-dione]
0.1 to 1	CCOC(=O)C1CCc2c(sc3ncnc(Nc4cc5c(s4)C(=O)NC54CCCCC4)c23)C1 (stereo not shown) [Compound XXV-5, Ethyl 4-((6′-oxo-5′,6′-dihydrospiro[cyclohexane-1,4′-thieno[2,3-c]pyrrol]-2′-yl)amino)-5,6,7,8-tetrahydrobenzo[4,5]thieno[2,3-d]pyrimidine-7-carboxylate]
> 1	Nc1cc(Nc2cc3n(n2)C2(CCCCC2)NC3=O)ncn1 [Compound XI, 2′-((6-Aminopyrimidin-4-yl)amino)spiro[cyclohexane-1,6′-imidazo[1,5-b]pyrazol]-4′(5′H)-one]
